US20060069132A1, “Azolecarboxamide herbicides” (priority 2004, published 2006)

Assays:
bermudagrass = assay: Test C pre-/postemergence herbicide test; type: in vivo, Cynodon dactylon
Source text: (§1) Seeds of plant species selected from bermudagrass (Cynodon dactylon (L.) Pers.), Surinam grass (Urochloa decumbens (Staph) R. D. Webster, previously named Brachiaria decumbens Stapf), cocklebur (Xanthium strumarium L.), corn (Zea mays L.), large crabgrass (Digitaria sanguinalis (L.) Scop.), woolly cupgrass (Eriochloa villosa (Thunb.) Kunth), giant foxtail (Setaria faberi Herrm.), goosegrass (Eleusine indica (L.) Gaertn.), johnsongrass (Sorghum halepense (L.) Pers.), kochia (Kochia scoparia (L.) Schrad.), lambsquarters (Chenopodium album L.), morningglory (Ipomoea coccinea L.), eastern black nightshade (Solanum ptycanthum Dunal), yellow nutsedge (Cyperus esculentus L.), pigweed (Amaranthus retroflexus L.), common ragweed (Ambrosia elatior L.), soybean (Glycine max (L.) Merr.), common (oilseed) sunflower (Helianthus annuus L.) and velvetleaf (Abutilon theophrasti Medik.) were planted and treated preemergence with test chemicals formulated in a non-phytotoxic solvent mixture which included a surfactant.
(§2) At the same time, plants selected from these crop and weed species and also winter barley (Hordeum vulgare L.), blackgrass (Alopecurus myosuroides Huds.), canarygrass (Phalaris minor Retz.), chickweed (Stellaria media (L.) Vill.), downy bromegrass (Bromus tectorum L.), green foxtail (Setaria viridis (L.) Beauv.), Italian ryegrass (Lolium multiflorum Lam.), wheat (Triticum aestivum L.), wild oat (Avenafatua L.) and windgrass (Apera spica-venti (L.) Beauv.) were treated with postemergence applications of some of the test chemicals formulated in the same manner. Plants ranged in height from 2 to 18 cm (1- to 4-leaf stage) for postemergence treatments. Plant species in the flooded paddy test consisted of rice (Oryza sativa), smallflower umbrella sedge (Cyperus difformis L.), ducksalad (Heteranthera limosa (Sw.) Willd.) and barnyardgrass (Echinochloa crus-galli (L.) Beauv.) grown to the 2-leaf stage for testing. Treated plants and controls were maintained in a greenhouse for 12 to 14 days, after which time all species were compared to controls and visually evaluated. Plant response ratings, summarized in Table C, are based on a scale of 0 to 100 where 0 is no effect and 100 is complete control. A dash (-) response means no test result.

corn = assay: Test C pre-/postemergence herbicide test; type: in vivo, Zea mays
Source text: as §1, §2

large crabgrass = assay: Test C pre-/postemergence herbicide test; type: in vivo, Digitaria sanguinalis
Source text: as §1, §2

giant foxtail = assay: Test C pre-/postemergence herbicide test; type: in vivo, Setaria faberi
Source text: as §1, §2

kochia = assay: Test C pre-/postemergence herbicide test; type: in vivo, Kochia scoparia
Source text: as §1, §2

morningglory [1] = assay: Test C pre-/postemergence herbicide test; type: in vivo, Ipomoea coccinea; set-up: key to Plant response rating, Morningglory: 0 = no effect, 100 = complete control
Source text: as §1, §2

common ragweed = assay: Test C pre-/postemergence herbicide test; type: in vivo, Ambrosia elatior; set-up: key to Plant response rating, Ragweed: 0 = no effect, 100 = complete control
Source text: as §1, §2

rice = assay: Test C flooded paddy test; type: in vivo, Oryza sativa
Procedure, shortened: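 Postemergence sprays applied to plants 2 to 18 cm tall (1- to 4-leaf stage); paddy species grown to 2-leaf stage under flooding. After 12 to 14 days in greenhouse, visual rating versus untreated controls on 0–100 scale (0 no effect, 100 complete control).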

[2] = system: smallflower umbrella sedge; assay: Test C flooded paddy test; type: in vivo, Cyperus difformis
ducksalad = assay: Test C flooded paddy test; type: in vivo, Heteranthera limosa
barnyardgrass = assay: Test A pre-/postemergence herbicide test; type: in vivo, Echinochloa crus-galli
Procedure, shortened: (§3)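 Visual injury rating on a 0–100 scale (0 no effect, 100 complete control) versus untreated controls, about ten days after treatment in greenhouse. Pre: directed soil spray onto seeded sandy loam. Post: spray to runoff on plants 2–10 cm tall at one- to two-leaf stage.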

morningglory [3] = assay: Test A pre-/postemergence herbicide test; type: in vivo, Ipomoea spp.; conditions: for Morningglory plant response rating: 500 g ai/ha
Procedure, shortened: as §3

[4] = postemergence, 125 g ai/ha, scale 0 to 100
[5] = postemergence, 62 g ai/ha, scale 0 to 100
[6] = Postemergence, 250 g ai/ha, scale 0 to 100, 0 no effect, 100 complete control
[7] = 62 g ai/ha, scale 0 to 100 (0 no effect, 100 complete control)
[8] = 125 g ai/ha, scale of 0 to 100, 0 is no effect, 100 is complete control
[9] = 250 g ai/ha, scale of 0 to 100, 0 is no effect, 100 is complete control
[10] = 500 g ai/ha, visual rating after 12 to 14 days, scale 0 to 100 (0 no effect, 100 complete control)
[11] = Postemergence, 2000 g ai/ha, 0 to 100 scale, 0 no effect, 100 complete control
[12] = Postemergence, 500 g ai/ha, scale 0 to 100

SMILES | Plant response rating, Corn (corn; [6]) | Plant response rating, Corn (corn; [4]) | Plant response rating, Corn (corn; [5]) | Plant response rating, Crabgrass, Large (large crabgrass; [6]) | Plant response rating, Crabgrass, Large (large crabgrass; [4]) | Plant response rating, Crabgrass, Large (large crabgrass; [5]) | Plant response rating, Foxtail, Giant (giant foxtail; [6]) | Plant response rating, Foxtail, Giant (giant foxtail; [4]) | Plant response rating, Foxtail, Giant (giant foxtail; [5]) | Plant response rating, Kochia (kochia; [6]) | Plant response rating, Kochia (kochia; [4]) | Plant response rating, Kochia (kochia; [5]) | Plant response rating, Morningglory (morningglory [1]; [6]) | Plant response rating, Morningglory (morningglory [1]; [4]) | Plant response rating, Morningglory (morningglory [1]; [5]) | Plant response rating, Ragweed (common ragweed; [6]) | Plant response rating, Ragweed (common ragweed; [4]) | Plant response rating, Ragweed (common ragweed; [5]) | also measured
CCn1nc(C(C)(C)C)cc1C(=O)Nc1cccc(C(=O)OC)c1 [Compound 81] | 40 | 40 | 40 | 30 | 10 | 5 | 20 | 10 | 10 | 70 | 20 | 0 | 10 | 10 | 10 | 60 | 60 | 40 | Bermudagrass plant response rating (bermudagrass; Postemergence, 250 g ai/ha, scale 0 to 100): 20; Plant response rating, Bermudagrass (bermudagrass; [4]): 0; Plant response rating, Bermudagrass (bermudagrass; postemergence, 31 g ai/ha, scale 0 to 100): 0; Plant response rating, Bermudagrass (bermudagrass; [5]): 0; Rice plant response rating (rice; [7]): 20; Rice plant response rating (rice; [8]): 20; Rice plant response rating (rice; [9]): 30; Plant response rating, Rice (rice; [10]): 40; Sedge, Umbrella plant response rating [2, 7]: 70; Sedge, Umbrella plant response rating [2, 8]: 70; Sedge, Umbrella plant response rating [2, 9]: 80; Plant response rating, Sedge, Umbrella [2, 10]: 80; Ducksalad plant response rating (ducksalad; [7]): 0; Ducksalad plant response rating (ducksalad; [8]): 0; Ducksalad plant response rating (ducksalad; [9]): 20; Plant response rating, Ducksalad (ducksalad; [10]): 20
C#CCOC(=O)c1cccc(NC(=O)c2cc(C(C)(C)C)nn2CC)c1 [Compound 84] | 0 | 0 | 0 | 0 | 0 | 0 | 0 | 0 | 0 | 10 | 0 | 0 | 0 | 0 | 0 | 0 | 0 | 0 | Barnyardgrass plant response rating (barnyardgrass; Postemergence, 500 g ai/ha, 0 to 100 scale, 0 no effect, 100 complete control): 15; Plant response rating, Barnyardgrass (barnyardgrass; [11]): 10; Barnyardgrass plant response rating (barnyardgrass; Preemergence, 500 g ai/ha, visual rating, 0 to 100 scale (0 no effect, 100 complete control)): 0; Barnyardgrass plant response rating (barnyardgrass; Preemergence, 2000 g ai/ha, 0 to 100 scale, 0 no effect, 100 complete control): 0; Morningglory plant response rating (morningglory [3]; Postemergence, 0 to 100 scale, 0 no effect, 100 complete control): 5; Plant response rating, Morningglory (morningglory [3]; [11]): 10; Morningglory plant response rating (morningglory [3]; Preemergence, visual rating, 0 to 100 scale (0 no effect, 100 complete control)): 0; Plant response rating, Bermudagrass (bermudagrass; [6]): 0; Corn plant response rating (corn; [12]): 0; Crabgrass, Large plant response rating (large crabgrass; [12]): 50; Foxtail, Giant plant response rating (giant foxtail; [12]): 0; Kochia plant response rating (kochia; [12]): 80; Morningglory plant response rating (morningglory [1]; [12]): 0; Ragweed plant response rating (common ragweed; [12]): 0
